No end group written: not given here.
Experiments:
[1] = test system: abdominal muscle wall (vascular leakage after celiotomy); assay: Vascular leakage after celiotomy (4 cm midline incision of abdominal muscle wall), Monastral blue; assay type: in vivo, rat; conditions: for Area / Intensity / Lesion Size: tissues 0.5 hour after surgery; for lesion size relative to that of the saline-treated group: celiotomy
Description: Experiments were conducted on male Sprague-Dawley rats 243±15 gm (S.D., Simonsen Labs., Gilroy, Calif.) anesthetized with sodium pentobarbital, 60 mg/kg i.p. Monastral blue, 60 mg/kg i.v., was injected 0.2 ml/100 g, 3 minutes before a 4 cm midline incision through the abdominal muscle wall (celiotomy). Saline or CRF was administered to randomized pairs with N=8 rats per group. The size of the lesion, measured as area in mm^2, and its light intensity, were quantified using the JAVA image-analysis software program. The light intensity, given in arbitrary units, was internally calibrated using Monastral blue solutions (1-30 mg/ml) placed on white filter paper. Values are mean ± S.E.M. FIG. 2 illustrates the respective amount of vascular permeability for one pair of rats (control and treated). Tables III and IV set out data from these experiments.
CRF: injected at various doses subcutaneously 30 minutes
before a 4 cm midline incision, tissues taken 0.5 hour
CRF: 30 μg/kg s.c. injected 2 hour before a 4 cm
midline incision, tissues taken 0.5 hour after surgery

[2] = test system: vascular leakage produced by PAF-acether; assay: Vascular leakage produced by PAF-acether injected subcutaneously into the abdomen; assay type: in vivo, rat
Description: CRF: 30 μg/kg s.c. injected 30 minutes before subcutaneous
injection of PAF-acether (1 μg/0.1 ml/rat) into the abdomen;
muscle removed 0.5 hour later.

[3] = test system: Freeze Injury to Brain (vascular permeability of brain); assay: Cold (freeze) injury to rat brain, vascular leakage by Monastral blue staining; assay type: in vivo
Excerpt: An in vivo model of injury to study brain edema has been developed as a reproducible edema model, which has the features of immediate cortical damage followed by the subsequent development of brain edema. This model is described by Chan et al., Brain Research, 277, pp. 329-337 (1983). The model uses rats which are anesthetized. A 2.5 cm incision is made over the sagittal suture and the bone of the right hemisphere exposed. A 60 mm^2 plate attached to a brass cup filled with dry ice-acetone mixture, with a temperature of -50° C., is applied to the rat skull for one minute. The animals are sacrificed at various intervals after the onset of cold-injury. A dye is administered intravenously before the freezing. Cortical slices are then obtained of the brain.
Sixteen male rats were randomly divided into eight pairs and one rat in each pair received either saline or CRF (subcutaneously twice at 30 μg/kg, 30 min and 10 min before cold injury). The animals were anesthetized with sodium pentobarbital, 60 mg/kg intraperitoneally, and injected with Monastral blue, 60 mg/kg intravenously. A cold probe was applied onto the skull for four minutes and the brains taken out one hour after cold injury. The staining of brain tissues with Monastral blue, a colloidal pigment that gets trapped between the albuminal surface of the endothelial cell and the basement membrane, was proportional to the degree of vascular leakage. The results from the first pair are shown as FIG. 1.
The size of the lesion, measured as area in mm^2, and the degree of staining intensity, were quantified using an image-analysis software program called JAVA (Jandel Corporation, San Rafael, Calif.). The stain intensity, given in arbitrary units, was internally calibrated using Monastral blue solutions (1-30 mg/ml) placed on white filter paper. Values are mean ± S.E.M.

[4] = test system: neutropenic rats infected with Pseudomonas; assay: Neutropenic rat model of sepsis (Pseudomonas infection), survival; assay type: in vivo; conditions: CRF 100 μg/kg i.v. twice a day for four days after onset of fever; day 11; 9/15; P<0.002 vs saline (100% mortality by day 8)
Excerpt: The neutropenic rat model of sepsis, designed to mimic the systemic inflammatory response syndrome in humans, is described by Collins et al. from The Journal of Infectious Diseases, 159:6 (June 1989) and The Journal of Clinical Investigation, 88:885 (September 1991). […] The animals die from overwhelming infection within 7 to 9 days of infection and examination of the tissues with histological and pathological techniques reveal the characteristic organic manifestations of the systemic inflammatory response syndrome, namely, organ edema and tissue necrosis.
In a typical experiment, 10 rats serving as controls received saline and 15 rats received CRF at a dose of 100 μg/kg intravenously, given twice a day for four days after the onset of fever. At the end of 8 days, all of the animals in the control group were dead (100% mortality). By contrast, 60% (9/15) of the CRF group were still alive at day 11 when the experiment was concluded. The difference between the saline and CRF treated groups were statistically significant (P<0.002).

[5] = test system: cerebral cortex and basal ganglia (brain edema); assay: Freeze injury of cerebral cortex, water and sodium content as index of brain edema; assay type: in vivo, rat; conditions: CRF 30 μg/kg s.c. 2×, ± S.E.M., N = 5
Description: In a second set of experiments, the brain surface, namely the cerebral cortex, was injured by freezing and the water and sodium content were measured in the cerebral cortex and in the basal ganglia, a part of the brain away from the freeze zone. The water and sodium content of the brain tissue served as an index of brain edema. After freeze injury, the water and sodium content of the cerebral cortex were evaluated relative to non-frozen tissues. CRF administered in two separate doses of 30 μg/kg subcutaneously, one dose 15 minutes before the injury and the second dose 90 minutes after the first dose, inhibited the two indices of brain edema.
Male SpragueDawley rats, 300-325 g, anesthetized with
ketamineacepromazine, were injected saline or CRF (30 μg/kg s.c.
2×) and injury to cerebral cortex was produced by applying a cold
probe to the skull for 1 min. Brain tissues were obtained 3 hr later and
analyzed for water and sodium content.

[6] = CRF 15 μg/kg s.c. 30 minutes before incision
[7] = CRF 30 μg/kg s.c. 30 minutes before incision
[8] = CRF 30 μg/kg s.c. 2 hour before incision
[9] = CRF 60 μg/kg s.c. 30 minutes before incision
[10] = CRF 30 μg/kg s.c. 30 minutes before PAF-acether 1 μg/0.1 ml/rat s.c., muscle removed 0.5 hour later
[11] = CRF 30 μg/kg s.c. twice, 30 min and 10 min before cold injury, brains taken 1 hour after injury, mean ± S.E.M.
[12] = injured cerebral cortex, tissue 3 hr after 1 min cold probe
[13] = non-injured basal ganglia, tissue 3 hr after injury

For “CRF: 41 amino acid neuropeptide, mammalian corticotropin-releasing factor; stimulates ACTH release from pituitary cells (SEEPPISLDLTFHLLREVLEMARAEQLAQQAHSNRKLMEII; not fully specified; ends and bridges not checked; UniProt P06850 154-194, looked up)”, the Area [1, 6] was 505 ± 16 mm^2, the Intensity [1, 6] was 2.0 ± 0.03 arbitrary units and the “Lesion Size” value [1, 6] was 1031 ± 44. For the same substance, the Area [1, 7] was 361 ± 18 mm^2, the Intensity [1, 7] was 1.9 ± 0.05 arbitrary units and the “Lesion Size” value [1, 7] was 676 ± 47. For the same substance, the Area [1, 8] was 477 ± 31 mm^2, the Intensity [1, 8] was 1.9 ± 0.03 arbitrary units and the “Lesion Size” value [1, 8] was 919 ± 51. The Area [1, 9] was 257 ± 3 mm^2, the Intensity [1, 9] was 1.8 ± 0.05 arbitrary units and the “Lesion Size” value [1, 9] was 468 ± 19. The “lesion size relative to that of the saline-treated group” value [1, 6] was 63%, the “lesion size relative to that of the saline-treated group” value [1, 7] was 42% and the “lesion size relative to that of the saline-treated group” value ([1]; CRF 30 μg/kg s.c. 2 hours before injury) was 59%. For the same substance, the “lesion size relative to that of the saline-treated group” value [1, 9] was 29%, the “muscle lesion size relative to that of the saline-treated control group” value ([2]; CRF 30 μg/kg s.c. 30 minutes before PAF-acether) was 44% and the Area [2, 10] was 188 ± 16 mm^2. The Intensity [2, 10] was 1.4 ± 0.05, the “Lesion Size” value [2, 10] was 260 ± 26 and the Area [3, 11] was 20.8 ± 1.2 mm^2. For the same substance, the “Intensity (staining intensity)” value [3, 11] was 2.0 ± 0.05 arbitrary units, the “Lesion Size” value [3, 11] was 43 ± 3 and the “lesion size relative to that of the saline-treated group” value ([3]; brain cold injury, CRF 30 μg/kg s.c. twice) was 44%. The “correct assignment of brains to saline or CRF group by an observer unaware of pretreatment” value ([3]; eight pairs of rats, more damaged vs less damaged brain) was 8 out of 8, the “animals still alive (survival)” value [4] was 60% and the “SODIUM, cerebral cortex” value [5, 12] was 271 ± 8 mEg/kg dry wt. The “WATER CONTENT, cerebral cortex” value [5, 12] was 77 ± 4%, the “SODIUM, basal ganglia” value [5, 13] was 215 ± 9 mEg/kg dry wt and the “WATER CONTENT, basal ganglia” value [5, 13] was 76 ± 1%.

Reference: US5488033A, “Treatment to reduce edema” (The Regents of the University of California, priority 1994, dated 1996)
